Assay results reported in ChEMBL document CHEMBL1153245, “A profile of the in vitro anti-tumor activity of imidazolium-based ionic liquids” (2010).

Assays:
Assay type in all cases: functional
SK-OV-3 = assay: Anticancer activity against human SKOV3 cells assessed cell growth at 10 uM after 48 hrs by sulforhodamine B assay relative to control
HCT-116 = assay: Anticancer activity against human HCT116 cells assessed cell growth at 10 uM after 48 hrs by sulforhodamine B assay relative to control
NCI-H522 = assay: Anticancer activity against human NCI-H522 cells assessed cell growth at 10 uM after 48 hrs by sulforhodamine B assay relative to control
A498 = assay: Anticancer activity against human A498 cells assessed cell growth at 10 uM after 48 hrs by sulforhodamine B assay relative to control
SK-MEL-2 = assay: Anticancer activity against human SK-MEL-2 cells assessed cell growth at 10 uM after 48 hrs by sulforhodamine B assay relative to control
HOP-92 = assay: Anticancer activity against human HOP92 cells assessed cell growth at 10 uM after 48 hrs by sulforhodamine B assay relative to control
SK-MEL-28 = assay: Anticancer activity against human SK-MEL-28 cells assessed cell growth at 10 uM after 48 hrs by sulforhodamine B assay relative to control
HL-60(TB) = assay: Anticancer activity against human HL-60(TB) cells assessed cell growth at 10 uM after 48 hrs by sulforhodamine B assay relative to control
NCI-H226 = assay: Anticancer activity against human NCI-H226 cells assessed cell growth at 10 uM after 48 hrs by sulforhodamine B assay relative to control
T47D = assay: Anticancer activity against human T47D cells assessed cell growth at 10 uM after 48 hrs by sulforhodamine B assay relative to control
HCT-15 = assay: Anticancer activity against human HCT15 cells assessed cell growth at 10 uM after 48 hrs by sulforhodamine B assay relative to control
MDA-MB-435 = assay: Anticancer activity against human MDA-MB-435 cells assessed cell growth at 10 uM after 48 hrs by sulforhodamine B assay relative to control
HT-29 = assay: Anticancer activity against human HT-29 cells assessed cell growth at 10 uM after 48 hrs by sulforhodamine B assay relative to control
OVCAR-4 = assay: Anticancer activity against human OVCAR4 cells assessed cell growth at 10 uM after 48 hrs by sulforhodamine B assay relative to control
OVCAR-5 = assay: Anticancer activity against human OVCAR5 cells assessed cell growth at 10 uM after 48 hrs by sulforhodamine B assay relative to control
MOLT-4 = assay: Anticancer activity against human MOLT4 cells assessed cell growth at 10 uM after 48 hrs by sulforhodamine B assay relative to control
UACC-257 = assay: Anticancer activity against human UACC257 cells assessed cell growth at 10 uM after 48 hrs by sulforhodamine B assay relative to control
COLO 205 = assay: Anticancer activity against human COLO205 cells assessed cell growth at 10 uM after 48 hrs by sulforhodamine B assay relative to control
OVCAR-3 = assay: Anticancer activity against human OVCAR-3 cells assessed cell growth at 10 uM after 48 hrs by sulforhodamine B assay relative to control
CCRF-CEM = assay: Anticancer activity against human CCRF-CEM cells assessed cell growth at 10 uM after 48 hrs by sulforhodamine B assay relative to control
DU-145 = assay: Anticancer activity against human DU145 cells assessed cell growth at 10 uM after 48 hrs by sulforhodamine B assay relative to control
CAKI-1 = assay: Anticancer activity against human Caki1 cells assessed cell growth at 10 uM after 48 hrs by sulforhodamine B assay relative to control
BT-549 = assay: Anticancer activity against human BT549 cells assessed cell growth at 10 uM after 48 hrs by sulforhodamine B assay relative to control
SN12C = assay: Anticancer activity against human SN12C cells assessed cell growth at 10 uM after 48 hrs by sulforhodamine B assay relative to control
K562 = assay: Anticancer activity against human K562 cells assessed cell growth at 10 uM after 48 hrs by sulforhodamine B assay relative to control
MDA-MB-231 = assay: Anticancer activity against human MDA-MB-231 cells assessed cell growth at 10 uM after 48 hrs by sulforhodamine B assay relative to control
KM12 = assay: Anticancer activity against human KM12 cells assessed cell growth at 10 uM after 48 hrs by sulforhodamine B assay relative to control
SK-MEL-5 = assay: Anticancer activity against human SK-MEL-5 cells assessed cell growth at 10 uM after 48 hrs by sulforhodamine B assay relative to control
M14 = assay: Anticancer activity against human M14 cells assessed cell growth at 10 uM after 48 hrs by sulforhodamine B assay relative to control
SW-620 = assay: Anticancer activity against human SW620 cells assessed cell growth at 10 uM after 48 hrs by sulforhodamine B assay relative to control
NCI-H23 = assay: Anticancer activity against human NCI-H23 cells assessed cell growth at 10 uM after 48 hrs by sulforhodamine B assay relative to control
UACC-62 = assay: Anticancer activity against human UACC62 cells assessed cell growth at 10 uM after 48 hrs by sulforhodamine B assay relative to control
SF-295 = assay: Anticancer activity against human SF295 cells assessed cell growth at 10 uM after 48 hrs by sulforhodamine B assay relative to control
SF-539 = assay: Anticancer activity against human SF539 cells assessed cell growth at 10 uM after 48 hrs by sulforhodamine B assay relative to control
[1] = Anticancer activity against human RPMI8266 cells assessed cell growth at 10 uM after 48 hrs by sulforhodamine B assay relative to control
NCI/ADR-RES = assay: Anticancer activity against human NCI/ADR-RES cells assessed cell growth at 10 uM after 48 hrs by sulforhodamine B assay relative to control
SF-268 = assay: Anticancer activity against human SF268 cells assessed cell growth at 10 uM after 48 hrs by sulforhodamine B assay relative to control
SR = assay: Anticancer activity against human SR cells assessed cell growth at 10 uM after 48 hrs by sulforhodamine B assay relative to control
ACHN = assay: Anticancer activity against human ACHN cells assessed cell growth at 10 uM after 48 hrs by sulforhodamine B assay relative to control
U-251 = assay: Anticancer activity against human U251 cells assessed cell growth at 10 uM after 48 hrs by sulforhodamine B assay relative to control
HCC 2998 = assay: Anticancer activity against human HCC2998 cells assessed cell growth at 10 uM after 48 hrs by sulforhodamine B assay relative to control
Malme-3M = assay: Anticancer activity against human MALME-3M cells assessed cell growth at 10 uM after 48 hrs by sulforhodamine B assay relative to control
SNB-75 = assay: Anticancer activity against human SNB75 cells assessed cell growth at 10 uM after 48 hrs by sulforhodamine B assay relative to control

CCCCCC[n+]1ccn(C)c1.FC(F)(F)C(F)(F)[P-](F)(F)(F)(C(F)(F)C(F)(F)F)C(F)(F)C(F)(F)F
Activity (SK-OV-3): 85.24%
Activity (HCT-116): 32.03%
Activity (NCI-H522): 58.3%
Activity (A498): 75.58%
Activity (SK-MEL-2): 47.53%
Activity (HOP-92): 85.4%
Activity (SK-MEL-28): 100.39%
Activity (HL-60(TB)): 96.2%
Activity (NCI-H226): 57.04%
Activity (T47D): 55.53%
Activity (HCT-15): 91.62%
Activity (MDA-MB-435): 51.22%
Activity (HT-29): 66.89%
Activity (OVCAR-4): 59.66%
Activity (OVCAR-5): 105.17%
Activity (MOLT-4): 81.53%
Activity (UACC-257): 34.16%
Activity (COLO 205): 97.72%
Activity (OVCAR-3): 94.84%
Activity (CCRF-CEM): 65.92%
Activity (DU-145): 107.66%
Activity (CAKI-1): 53.43%
Activity (BT-549): 54.78%
Activity (SN12C): 87.26%
Activity (K562): 68.14%
Activity (MDA-MB-231): 73.1%
Activity (KM12): 91.54%
Activity (SK-MEL-5): 51.37%
Activity (M14): 88.81%
Activity (SW-620): 80.17%
Activity (NCI-H23): 45.51%
Activity (UACC-62): 68.28%
Activity (SF-295): 70.02%
Activity (SF-539): 75.55%
Activity [1]: 53.67%
Activity (NCI/ADR-RES): 54.24%
Activity (SF-268): 103.36%
Activity (SR): 77.17%
Activity (ACHN): 54.23%
Activity (U-251): 78.65%
Activity (HCC 2998): 76.85%
Activity (Malme-3M): 102.23%
Activity (SNB-75): 88.07%

CCCCCCCC[n+]1ccn(C)c1.F[B-](F)(F)F
Activity (SK-OV-3): 81.16%
Activity (HCT-116): 66.53%
Activity (NCI-H522): 69.23%
Activity (A498): 99.32%
Activity (SK-MEL-2): 90.35%
Activity (HOP-92): 87.53%
Activity (SK-MEL-28): 105.03%
Activity (HL-60(TB)): 64.63%
Activity (NCI-H226): 75.04%
Activity (T47D): 75.19%
Activity (HCT-15): 97.47%
Activity (MDA-MB-435): 59.67%
Activity (HT-29): 70.49%
Activity (OVCAR-4): 66.15%
Activity (OVCAR-5): 92.12%
Activity (MOLT-4): 92.94%
Activity (UACC-257): 87.94%
Activity (COLO 205): 77.64%
Activity (OVCAR-3): 102.92%
Activity (CCRF-CEM): 45.61%
Activity (DU-145): 95.55%
Activity (CAKI-1): 60.04%
Activity (BT-549): 64.81%
Activity (SN12C): 97.45%
Activity (K562): 81.46%
Activity (MDA-MB-231): 78.93%
Activity (KM12): 79.57%
Activity (SK-MEL-5): 81.77%
Activity (M14): 87.56%
Activity (SW-620): 80.56%
Activity (NCI-H23): 59.28%
Activity (UACC-62): 90.08%
Activity (SF-295): 78.23%
Activity (SF-539): 74.98%
Activity [1]: 64.64%
Activity (NCI/ADR-RES): 91.95%
Activity (SF-268): 103.08%
Activity (SR): 87.14%
Activity (ACHN): 70.72%
Activity (U-251): 73.04%
Activity (HCC 2998): 70.57%
Activity (Malme-3M): 80.13%
Activity (SNB-75): 84.84%
